Assay type in all cases: functional
Conditions in all cases: read-out: ED50 (the source's name)

Assay [1] is described as follows: Cytotoxicity against human […] cells by tetrazolium salt-based colorimetric assay.
The test system of the next assay is TE-671. The experiment in a line: Cytotoxicity against human TE671 cells by tetrazolium salt-based colorimetric assay.
Another assay concerns KB. The experiment in a line: Cytotoxicity against human KB cells by tetrazolium salt-based colorimetric assay.
The test system of the next assay is A549. The assay can be described thus: Cytotoxicity against human A549 cells by tetrazolium salt-based colorimetric assay.
A further assay concerns HCT-8. The experiment in a line: Cytotoxicity against human HCT8 cells by tetrazolium salt-based colorimetric assay.

From ChEMBL document CHEMBL1150212, “Antitumor agents, 129. Tannins and related compounds as selective cytotoxic agents” (1992) come the findings set out here.

SMILES strings stand for the structures. *1 amine or outer side, *2 acyl side, *3 side chain or, on linkers, in order; H or OH if unused. Where a SMILES comes first, the peptide text is derived from it. Bridges are numbered along the chain shown (N, C = ends). Roman numbers before positions name the chains, in order. [ ]: non-standard residue; d: D form. Actinocin(1to9) = Cc1c2oc3c(C)ccc(C(=O)[*:2])c3nc-2c(C(=O)[*:1])c(N)c1=O; NMeV = CN[C@H](C(=O)O)C(C)C; Sar = CNCC(=O)O

As for `O=C(O[C@@H]1[C@@H](c2c(O)cc(O)c3c2O[C@H](c2ccc(O)c(O)c2)[C@H](OC(=O)c2cc(O)c(O)c(O)c2)C3)c2c(O)cc(O)c([C@H]3c4c(O)cc(O)cc4O[C@H](c4ccc(O)c(O)c4)[C@@H]3OC(=O)c3cc(O)c(O)c(O)c3)c2O[C@@H]1c1ccc(O)c(O)c1)c1cc(O)c(O)c(O)c1`, the EC50 in assay [1] was 3.05 µg/mL; with TE-671 it was over 10 µg/mL; with KB, over 10 µg/mL; with A549, over 10 µg/mL; in the assay on HCT-8 it was over 10 µg/mL.

With `O=C(O)C1=C[C@@H](O)[C@@H](O)[C@H](OC(=O)c2cc(O)c(O)c(O)c2)C1`, the EC50 (in assay [1]; in the assay with TE-671; with KB; in the assay on A549; in the assay on HCT-8) was over 10 µg/mL in each case.

With `O=C(O[C@H]1[C@H](O)C[C@](OC(=O)c2cc(O)c(O)c(O)c2)(C(=O)O)C[C@H]1OC(=O)c1cc(O)c(O)c(O)c1)c1cc(O)c(O)c(O)c1`, the EC50 (in assay [1]; with TE-671; in the assay with KB; in the assay with A549; in the assay on HCT-8) was over 10 µg/mL in each case.

As for `O=C(O[C@@H]1C[C@](O)(C(=O)O)C[C@@H](OC(=O)c2cc(O)c(O)c(O)c2)[C@H]1OC(=O)c1cc(O)c(O)c(O)c1)c1cc(O)c(O)c(O)c1`, the EC50 (in assay [1]; in the assay with TE-671; in the assay on KB; with A549; in the assay with HCT-8) was over 10 µg/mL throughout.

For `O=C(O[C@@H]1C[C@](OC(=O)c2cc(O)c(O)c(O)c2)(C(=O)O)C[C@@H](OC(=O)c2cc(O)c(O)c(O)c2)[C@H]1OC(=O)c1cc(O)c(O)c(O)c1)c1cc(O)c(O)c(O)c1`, the EC50 in assay [1] is 0.43 µg/mL; in the assay on TE-671, over 10 µg/mL; in the assay on KB, over 10 µg/mL; in the assay on A549, over 10 µg/mL; in the assay on HCT-8, over 10 µg/mL.

Turning to `O=C(O)C1=C[C@@H](O)[C@@H](O)[C@H](OC(=O)c2cc(O)c(O)c(OC(=O)c3cc(O)c(O)c(O)c3)c2)C1`, the EC50 (in assay [1]; in the assay on TE-671; in the assay with KB; in the assay on A549; in the assay on HCT-8) was over 10 µg/mL throughout.

On to `O=C(O[C@@H]1[C@@H](c2c(O)cc(O)c3c2O[C@H](c2ccc(O)c(O)c2)[C@H](OC(=O)c2cc(O)c(O)c(O)c2)C3)c2c(O)cc(O)cc2O[C@@H]1c1ccc(O)c(O)c1)c1cc(O)c(O)c(O)c1`, for which the EC50 in assay [1] was 3.45 µg/mL; in the assay with TE-671, over 10 µg/mL; in the assay on KB, over 10 µg/mL; in the assay on A549 it was over 10 µg/mL; with HCT-8, over 10 µg/mL.

Take `O=C(O[C@H]1[C@H](O)C[C@](O)(C(=O)O)C[C@H]1O)c1cc(O)c(O)c(O)c1`: the EC50 (in assay [1]; with TE-671; in the assay with KB; in the assay with A549; with HCT-8) was over 10 µg/mL each time.

With `O=C(O[C@@H]1O[C@@H]2COC(=O)c3cc(O)c(O)c(O)c3-c3c(cc(O)c(O)c3O)C(=O)O[C@H]2[C@@H]2OC(=O)c3cc(O)c(O)c(O)c3-c3c(cc(O)c(O)c3O)C(=O)O[C@@H]12)c1cc(O)c(O)c(O)c1`, the EC50 was 0.21 µg/mL in assay [1]; over 10 µg/mL with TE-671; over 10 µg/mL with KB; over 10 µg/mL in the assay on A549; over 10 µg/mL in the assay with HCT-8.

As to `O=C(OC[C@H]1O[C@@H](OC(=O)c2cc(O)c(O)c(O)c2)[C@H](OC(=O)c2cc(O)c(O)c(O)c2)[C@@H](O)[C@@H]1O)c1cc(O)c(O)c(O)c1`, the EC50 (in assay [1]; with TE-671; in the assay on KB; in the assay with A549; in the assay with HCT-8) was over 10 µg/mL each time.

As to `O=C(OC[C@H]1O[C@@H](OC(=O)c2cc(O)c(O)c(O)c2)[C@H](OC(=O)c2cc(O)c(O)c(O)c2)[C@@H](OC(=O)c2cc(O)c(O)c(O)c2)[C@@H]1O)c1cc(O)c(O)c(O)c1`, the EC50 (in assay [1]; in the assay on TE-671; with KB; in the assay with A549; with HCT-8) was over 10 µg/mL throughout.

`O=C(OC[C@H]1O[C@@H](OC(=O)c2cc(O)c(O)c(O)c2)[C@H](O)[C@@H](O)[C@@H]1OC(=O)c1cc(O)c(O)c(O)c1)c1cc(O)c(O)c(O)c1`: the EC50 (in assay [1]; in the assay with TE-671; in the assay on KB; with A549; with HCT-8) was over 10 µg/mL throughout.

As to `O=C(OC[C@H]1OC(O)[C@@](O)(COC(=O)c2cc(O)c(O)c(O)c2)[C@@H]1OC(=O)c1cc(O)c(O)c(O)c1)c1cc(O)c(O)c(O)c1` (stereo partly specified), the EC50 (in assay [1]; in the assay on TE-671; in the assay on KB; in the assay on A549; in the assay with HCT-8) was over 10 µg/mL in each case.

Regarding `O=C1O[C@H]2[C@H](O)[C@@H](CO)OC(O)[C@@H]2OC(=O)c2cc(O)c(O)c(O)c2-c2c1cc(O)c(O)c2O` (stereo partly specified), the EC50 (in assay [1]; in the assay with TE-671; in the assay on KB; in the assay on A549; with HCT-8) was over 10 µg/mL each time.

For the compound `O=C(O[C@H]1[C@H](O)C[C@](O)(C(=O)O)C[C@H]1OC(=O)c1cc(O)c(O)c(O)c1)c1cc(O)c(O)c(O)c1`, the EC50 in assay [1] is 0.53 µg/mL; in the assay with TE-671 it was over 10 µg/mL; in the assay with KB it was over 10 µg/mL; in the assay on A549 it was over 10 µg/mL; with HCT-8, over 10 µg/mL.

For the compound `O=C(OC[C@H]1O[C@@H](O)[C@H](OC(=O)c2cc(O)c(O)c(O)c2)[C@@H](OC(=O)c2cc(O)c(O)c(O)c2)[C@@H]1OC(=O)c1cc(O)c(O)c(O)c1)c1cc(O)c(O)c(O)c1`, the EC50 (in assay [1]; with TE-671; with KB; in the assay on A549; with HCT-8) was over 10 µg/mL in each case.

For `O=C(O)c1cc(O)c(O)c(Oc2cc3c(c(O)c2O)-c2c(cc(O)c(O)c2O)C(=O)OC[C@H]2O[C@@H](OC(=O)c4cc(O)c(O)c(O)c4)[C@H](OC(=O)c4cc(O)c(O)c(O)c4)[C@@H](OC(=O)c4cc(O)c(O)c(O)c4)[C@@H]2OC3=O)c1`, the EC50 is 0.44 µg/mL in assay [1]; over 10 µg/mL in the assay with TE-671; over 10 µg/mL in the assay on KB; over 10 µg/mL in the assay on A549; over 10 µg/mL in the assay on HCT-8.

`O=C(O)C1=C[C@@H](OC(=O)c2cc(O)c(O)c(O)c2)[C@@H](O)[C@H](OC(=O)c2cc(O)c(O)c(O)c2)C1`: the EC50 (in assay [1]; in the assay on TE-671; with KB; with A549; in the assay on HCT-8) was over 10 µg/mL throughout.

`Cc1c2oc3c(C)ccc(C(=O)N[C@@H]4C(=O)N[C@H](C(C)C)C(=O)N5CCC[C@H]5C(=O)N(C)CC(=O)N(C)[C@@H](C(C)C)C(=O)O[C@@H]4C)c3nc-2c(C(=O)N[C@@H]2C(=O)N[C@H](C(C)C)C(=O)N3CCC[C@H]3C(=O)N(C)CC(=O)N(C)[C@@H](C(C)C)C(=O)O[C@@H]2C)c(N)c1=O` [DACTINOMYCIN] (I: T[dV]P[Sar][NMeV] / II: T[dV]P[Sar][NMeV]; ester I:1-I:C, II:1-II:C; linker I:N-II:N via Actinocin(1to9)): in assay [1], the EC50 is under 0.01 µg/mL.
